The results in this text go back to ChEMBL document CHEMBL1201862, “PubChem BioAssay data set” (2004).

Test systems include IGROV-1; M14; Malme-3M; NCI-H226; SF-268; RXF 393; HCT-15; HT-29; HOP-92; OVCAR-4; KM12; EKVX; SF-295; UO-31; ACHN; UACC-62; OVCAR-5; SNB-19; MCF7.
Assay in all cases: NCI anticancer screen, dose series, 48 h

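1) Cells in 96-well plates. 2) Compound, 48 h, 5 concentrations. 3) Linear interpolation between surrounding doses. 4) Unreached endpoint = highest concentration. At the GI50, growth is halved.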 The source made the active and inactive calls. Rule as the data show it: active = GI50 up to about 1.1 µM and inactive = higher. Where only a bound is given, the exact number is not on record here.

For `CC1(C)C(c2ccccc2)C12CCC1(C2=O)C(c2ccccc2)C1(C)C` (stereo unspecified), the GI50 was 31.8 µM (inactive) in the experiment with IGROV-1; 23.3 µM (inactive) in the experiment on M14; 26.7 µM (inactive) in the experiment on Malme-3M; 17.9 µM (inactive) in the experiment with NCI-H226; 29.4 µM (inactive) in the experiment on SF-268; 20.1 µM (inactive) in the experiment with RXF 393. For the same compound, the GI50 with HCT-15 was 24.2 µM; with HT-29, 16.1 µM (inactive); with HOP-92 it was 11.7 µM (inactive); with OVCAR-4 it was 31.3 µM (inactive); in the experiment with KM12 it was > 10 µM (inactive); in the experiment on EKVX, 25.1 µM (inactive). Also, the GI50 was 19.4 µM (inactive) in the experiment with SF-295; 19.9 µM (inactive) in the experiment with UO-31; 19.6 µM (inactive) in the experiment with ACHN; 32 µM (inactive) in the experiment with UACC-62; 24.7 µM (inactive) in the experiment on OVCAR-5; 28.8 µM (inactive) in the experiment with SNB-19.

As for `O=C1c2cccc3cc([N+](=O)[O-])cc(c23)C(=O)N1NC1=NCCN1`, the GI50 in the experiment with IGROV-1, with M14, in the experiment with Malme-3M, in the experiment with NCI-H226, in the experiment on SF-268 and with RXF 393 was > 100 µM (inactive) throughout. Also, the GI50 was over 100 µM with HCT-15; > 100 µM (inactive) in the experiment on HT-29; > 100 µM (inactive) in the experiment with HOP-92; > 100 µM (inactive) in the experiment with OVCAR-4; > 100 µM (inactive) in the experiment with KM12; > 100 µM (inactive) in the experiment on EKVX. Besides, the GI50 with SF-295, with UO-31, with ACHN, with UACC-62, with OVCAR-5 and in the experiment on SNB-19 was > 100 µM (inactive) in each case.

`Nc1nc2ncn(CCO)c2c(=S)[nH]1`: the GI50 in the experiment on IGROV-1, in the experiment on M14, with Malme-3M, with NCI-H226, in the experiment with SF-268 and with RXF 393 was > 100 µM (inactive) each time. The GI50 is over 100 µM in the experiment with HCT-15; > 100 µM (inactive) in the experiment with HT-29; > 100 µM (inactive) with HOP-92; > 100 µM (inactive) in the experiment with OVCAR-4; > 100 µM (inactive) in the experiment with KM12; > 100 µM (inactive) with EKVX. Also, the GI50 in the experiment on SF-295, in the experiment on UO-31, with ACHN, in the experiment with UACC-62, in the experiment on OVCAR-5 and in the experiment on SNB-19 was > 100 µM (inactive) in each case.

Take `CC(C)C(=O)Nc1nc2[nH]cnc2c(=O)[nH]1`: the GI50 with IGROV-1, with M14, in the experiment on Malme-3M, in the experiment with NCI-H226, with SF-268 and in the experiment on RXF 393 was > 100 µM (inactive) throughout. Moreover, the GI50 is over 100 µM with HCT-15; > 100 µM (inactive) in the experiment on HT-29; > 100 µM (inactive) with HOP-92; > 100 µM (inactive) with OVCAR-4; > 100 µM (inactive) in the experiment with KM12; > 100 µM (inactive) in the experiment on EKVX. Besides, the GI50 in the experiment on SF-295, in the experiment on UO-31, in the experiment on ACHN, with UACC-62, with OVCAR-5 and in the experiment with SNB-19 was > 100 µM (inactive) throughout.

For the compound `COC(=O)c1cc2c(nc1C)-c1ccccc1OS2(=O)=O`, the GI50 with IGROV-1 is > 100 µM (inactive); with M14 it was > 100 µM (inactive); with Malme-3M, > 100 µM (inactive); in the experiment with NCI-H226, > 100 µM (inactive); in the experiment on SF-268, 45.5 µM (inactive); with RXF 393 it was 32.6 µM (inactive). The GI50 with HCT-15 is over 100 µM; in the experiment with HT-29, > 100 µM (inactive); with HOP-92 it was 24.6 µM (inactive); in the experiment with OVCAR-4 it was > 100 µM (inactive); in the experiment on KM12 it was > 100 µM (inactive); with EKVX, > 100 µM (inactive). Moreover, the GI50 was 43.1 µM (inactive) in the experiment on SF-295; > 100 µM (inactive) in the experiment with UO-31; > 100 µM (inactive) in the experiment on ACHN; > 100 µM (inactive) in the experiment with UACC-62; > 100 µM (inactive) with OVCAR-5; 81.3 µM (inactive) with SNB-19.

Take `CSc1nc2c(c(O)c(C)c(=O)n2C2OC(COC(C)=O)C(OC(C)=O)C(OC(C)=O)C2OC(C)=O)c(=O)n1C` (stereo unspecified): the GI50 in the experiment with IGROV-1, in the experiment on M14, with Malme-3M, in the experiment with NCI-H226, in the experiment with SF-268 and in the experiment with RXF 393 was > 100 µM (inactive) throughout. In addition, the GI50 is over 100 µM in the experiment on HCT-15; > 100 µM (inactive) in the experiment with HT-29; > 100 µM (inactive) in the experiment on HOP-92; > 100 µM (inactive) with OVCAR-4; > 100 µM (inactive) with KM12; > 100 µM (inactive) in the experiment on EKVX. Moreover, the GI50 in the experiment with SF-295 is > 100 µM (inactive); in the experiment with UO-31, > 77.4 µM (inactive); with ACHN it was > 100 µM (inactive); in the experiment on UACC-62 it was > 100 µM (inactive); in the experiment on OVCAR-5, > 100 µM (inactive); in the experiment with SNB-19, > 100 µM (inactive).

Regarding `C/C(CCn1[nH]c(=O)ccc1=O)=N\Nc1ccc([N+](=O)[O-])cc1[N+](=O)[O-]`, the GI50 was > 100 µM (inactive) in the experiment with IGROV-1; 26 µM (inactive) in the experiment with M14; > 100 µM (inactive) with Malme-3M; > 100 µM (inactive) with NCI-H226; > 100 µM (inactive) with SF-268; > 100 µM (inactive) in the experiment on RXF 393. The GI50 in the experiment on HCT-15 was 23.6 µM; in the experiment on HT-29 it was > 100 µM (inactive); in the experiment on HOP-92 it was > 100 µM (inactive); with OVCAR-4 it was > 100 µM (inactive); in the experiment on KM12 it was 33.5 µM (inactive); in the experiment on EKVX, > 100 µM (inactive). In addition, the GI50 with SF-295 is 20.5 µM (inactive); in the experiment with UO-31, 12.7 µM (inactive); with ACHN it was 90.8 µM (inactive); in the experiment with UACC-62 it was 5.9 µM (inactive); in the experiment with OVCAR-5, > 100 µM (inactive); with SNB-19 it was > 100 µM (inactive).

As to `COc1ccc(-c2nc3cc(C(F)(F)F)ccc3n2CC2CCCN3CCCCC23)cc1` (stereo unspecified), the GI50 was 13.9 µM (inactive) with IGROV-1; 13 µM (inactive) in the experiment on M14; 16.5 µM (inactive) in the experiment with NCI-H226; 15.3 µM (inactive) with SF-268; 16.6 µM (inactive) in the experiment on RXF 393; 13.2 µM (inactive) in the experiment with MCF7. Moreover, the GI50 in the experiment with HCT-15 is 15.7 µM; with HT-29, 13.3 µM (inactive); in the experiment on HOP-92 it was 14.8 µM (inactive); with OVCAR-4, 17.1 µM (inactive); in the experiment on KM12, 19.4 µM (inactive); with EKVX it was 12.1 µM (inactive). Further, the GI50 in the experiment on SF-295 is 19.2 µM (inactive); in the experiment on UO-31, 17.1 µM (inactive); with ACHN, 15.6 µM (inactive); in the experiment with OVCAR-5, 27.1 µM (inactive).

As for `CC(C)(C)c1cc(-c2c3nc(c(-c4cc(C(C)(C)C)cc(C(C)(C)C)c4)c4ccc([nH]4)c(-c4cc(C(C)(C)C)cc(C(C)(C)C)c4)c4nc(c(-c5cc(C(C)(C)C)cc(C(C)(C)C)c5)c5ccc2[nH]5)C=C4)C=C3)cc(C(C)(C)C)c1`, the GI50 with IGROV-1, in the experiment with M14, in the experiment on Malme-3M, with NCI-H226, in the experiment on SF-268 and with RXF 393 was > 100 µM (inactive) in each case. Besides, the GI50 in the experiment on HCT-15 is over 100 µM; with HT-29, > 100 µM (inactive); in the experiment on HOP-92 it was > 100 µM (inactive); with OVCAR-4, > 100 µM (inactive); in the experiment on KM12, > 100 µM (inactive); in the experiment with EKVX, > 100 µM (inactive). In addition, the GI50 in the experiment with SF-295, with UO-31, in the experiment with ACHN, with UACC-62, with OVCAR-5 and in the experiment on SNB-19 was > 100 µM (inactive) throughout.

In the case of `CN(C)c1n/c(=N/c2ncn[nH]2)ss1`, the GI50 with IGROV-1, in the experiment on M14, with Malme-3M, with NCI-H226, with SF-268 and in the experiment with RXF 393 was > 100 µM (inactive) in each case. Moreover, the GI50 with HCT-15 was over 100 µM; with HT-29, > 100 µM (inactive); in the experiment with HOP-92, > 100 µM (inactive); in the experiment with OVCAR-4, > 100 µM (inactive); in the experiment with KM12, > 100 µM (inactive); in the experiment on EKVX, > 100 µM (inactive). Further, the GI50 in the experiment on SF-295, in the experiment on UO-31, in the experiment with ACHN, in the experiment on UACC-62, with OVCAR-5 and in the experiment on SNB-19 was > 100 µM (inactive) each time.

For `CN1CCC(=O)/C(=C/c2ccccc2)C1`, the GI50 is 16 µM (inactive) with IGROV-1; 13.2 µM (inactive) in the experiment on M14; 19.5 µM (inactive) with Malme-3M; 16.8 µM (inactive) in the experiment on NCI-H226; 17.5 µM (inactive) in the experiment with SF-268; 13.7 µM (inactive) in the experiment on RXF 393. Moreover, the GI50 in the experiment with HCT-15 was 7.06 µM; with HT-29, 3.32 µM (inactive); in the experiment with HOP-92, 17.5 µM (inactive); in the experiment on OVCAR-4 it was 17.9 µM (inactive); in the experiment on KM12, 2.23 µM (inactive); in the experiment with EKVX, 23 µM (inactive). The GI50 in the experiment with SF-295 was 15.4 µM (inactive); in the experiment with UO-31, 17.9 µM (inactive); in the experiment with ACHN, 17.9 µM (inactive); in the experiment with UACC-62, 21.9 µM (inactive); with OVCAR-5, 15.7 µM (inactive); with SNB-19, 17.1 µM (inactive).
